Earlier results on six compounds are cited in US20040058975A1, “Method for fertility control” (Schering AG, priority 2002, published 2004).

Read-outs that look alike come from different tables or passages of the source.

One series has as its target COX-2 (Homo sapiens, UniProt P35354). The following applies: humans.
Series [1] relates to ovulation. The following applies: women.
Series [2] has as its system ovulation. The conditions noted are these: several mammalian species including rats, rabbits, sheep.
Series [3] relates to ovulation. The following applies: monkeys.
Series [4] concerns ovulation. The following applies: COX-2 deficient mice.

Chain of COX-2 (P35354 18-604): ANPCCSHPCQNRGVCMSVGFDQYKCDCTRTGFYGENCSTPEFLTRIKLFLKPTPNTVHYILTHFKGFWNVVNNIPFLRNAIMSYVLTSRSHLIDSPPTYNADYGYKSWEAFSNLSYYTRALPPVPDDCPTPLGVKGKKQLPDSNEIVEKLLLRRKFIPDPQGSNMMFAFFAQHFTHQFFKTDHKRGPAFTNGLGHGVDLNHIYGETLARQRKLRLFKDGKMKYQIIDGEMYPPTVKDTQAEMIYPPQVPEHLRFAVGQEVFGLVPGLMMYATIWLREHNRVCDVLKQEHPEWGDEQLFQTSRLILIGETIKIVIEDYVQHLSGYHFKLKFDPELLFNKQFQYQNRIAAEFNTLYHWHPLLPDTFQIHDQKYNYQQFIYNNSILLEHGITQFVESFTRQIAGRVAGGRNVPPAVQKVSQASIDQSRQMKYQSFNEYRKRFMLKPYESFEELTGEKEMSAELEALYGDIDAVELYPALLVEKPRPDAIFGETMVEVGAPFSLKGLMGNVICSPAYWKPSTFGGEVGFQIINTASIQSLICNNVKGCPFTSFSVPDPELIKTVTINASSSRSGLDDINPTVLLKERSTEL

With `CS(=O)(=O)c1ccc(C2=C(c3ccccc3)C(=O)OC2)cc1` [Rofecoxib, 4-(4-mesylphenyl)-3-phenylfuran-2(5H)-one], on COX-2, the follicular rupture result was “delayed follicular rupture” and the peripheral hormonal cycles entry is listed as “without affecting peripheral hormonal cycles”. On to `COc1ccc2c(c1)c(CC(=O)O)c(C)n2C(=O)c1ccc(Cl)cc1` [Indomethacin], for which the ovulation result in the series with ovulation [1] is given as “block ovulation”; in the series on ovulation [2], “may prevent ovulation”; with ovulation [3], “block ovulation”. Consider `CCCCC[C@H](O)/C=C/[C@H]1[C@H](O)CC(=O)[C@@H]1C/C=C\CCCC(=O)O` [prostaglandin E2], for which the anovulation result in the series on ovulation [4] was “restored”. As for `COc1ccc2cc([C@H](C)C(=O)O)ccc2c1` [Naproxen], the ovulation entry with ovulation [2] is “may prevent ovulation”. For Interleukin-1β: Interleukin-1β, the anovulation result in the series with ovulation [4] is “restored”. Regarding `CC(=O)Oc1ccccc1C(=O)O` [Aspirin], the ovulation result in the series on ovulation [2] is on record as “may prevent ovulation”.
